Measurements as given in patent EP1831198B1, “PYRIDINE CARBOXAMIDE DERIVATIVES FOR USE AS ANTICANCER AGENTS” (AstraZeneca AB, priority 2004, dated 2006).

Molecular target: human recombinant, purified wild type His-B-Raf protein kinase (Homo sapiens, UniProt P15056)
Assay: B-Raf in vitro ELISA assay
Type: biochemical
Conditions: phosphorylation of MEK1; 2.5 nM B-Raf, 0.15 µM MEK1, 10 µM ATP
Excerpt: Data was graphed and IC50s calculated using Excel Fit (Microsoft).

human recombinant, purified wild type His-B-Raf protein kinase, sequence (P15056 whole entry): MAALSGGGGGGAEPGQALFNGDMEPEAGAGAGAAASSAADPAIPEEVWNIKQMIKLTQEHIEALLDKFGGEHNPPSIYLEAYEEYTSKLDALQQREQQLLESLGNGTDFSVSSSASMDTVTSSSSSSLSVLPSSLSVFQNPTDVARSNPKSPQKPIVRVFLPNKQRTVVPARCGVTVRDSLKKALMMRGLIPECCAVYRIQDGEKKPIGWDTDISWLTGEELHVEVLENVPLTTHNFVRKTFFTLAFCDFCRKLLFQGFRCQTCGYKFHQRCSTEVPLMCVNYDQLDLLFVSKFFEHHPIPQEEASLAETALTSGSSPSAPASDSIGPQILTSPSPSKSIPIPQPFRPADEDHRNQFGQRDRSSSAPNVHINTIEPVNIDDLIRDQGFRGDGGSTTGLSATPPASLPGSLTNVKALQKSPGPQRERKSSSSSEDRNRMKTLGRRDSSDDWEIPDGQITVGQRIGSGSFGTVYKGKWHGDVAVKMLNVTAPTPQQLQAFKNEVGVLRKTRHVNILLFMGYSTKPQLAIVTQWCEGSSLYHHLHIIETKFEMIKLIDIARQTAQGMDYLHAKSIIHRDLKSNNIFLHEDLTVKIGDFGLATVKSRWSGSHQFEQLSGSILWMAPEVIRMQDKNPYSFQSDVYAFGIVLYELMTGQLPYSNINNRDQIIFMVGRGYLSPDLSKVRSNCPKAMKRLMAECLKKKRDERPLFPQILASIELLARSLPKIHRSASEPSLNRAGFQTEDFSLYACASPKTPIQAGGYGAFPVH

IC50: 1.08 µM
Structure (SMILES): Cc1ccc(NC(=O)c2cccc3c2OCC3)cc1C(=O)Nc1cccnc1 [Example 9, N-{4-Methyl-3-[(pyridin-3-ylamino)carbonyl]phenyl}-2,3-dihydro-1-benzofuran-7-carboxamide]
